Measured values published in US20210360915A1, “CRYOPRESERVING COMPOSITIONS” (UNIVERSITY OF WARWICK, priority 2018, published 2021).

How the values were obtained:
M. smegmatis = M. smegmatis colony recovery after 7 freeze/thaw cycles; assay type: cell-based, Mycobacterium smegmatis
From the text: (§1) Bacillus subtilis was chosen as a Gram positive strain and Mycobacterium smegmatis as a Mycobacteria (distinct cell wall compared to other Gram positives) for further analysis. Using the same conditions as for E. coli, the cells were exposed to 7 freeze/thaw cycles and recovered colonies counted, Table 1 and FIG. 4. To enable comparison of the data and to account for the different growth rates of each bacterial strain, the recovered colonies were also normalised to the highest recovery.

B. subtilis = B. subtilis colony recovery after 7 freeze/thaw cycles; assay type: cell-based, Bacillus subtilis
From the text: as §1

E. coli [1] = test: Post-thaw growth profile of E. coli by OD600; assay type: cell-based, Escherichia coli; conditions: 7 freeze/thaw cycles in liquid nitrogen, then inoculated into LB media
From the text: This macromolecular cryoprotection solution using ice-inhibiting polymers is clearly suitable for bacteria storage but there are many parameters which can be varied in this system including the molecular weight of the polymers. To enable a large number of conditions to be screened, the post-thaw growth rate of E. coli was also followed by OD600 (turbidity) measurements, which enable higher-throughput measurements. E. coli were frozen with the indicated formulations, and post-thaw inoculated into LB media and their growth monitored.
The improvement was most significant in the case of larger PEGs.

E. coli [2] = test system: E. coli
Description: Each component (at the useful cryopreservation concentration) was incubated with E. coli overnight at 4° C. and subsequently the number of colony forming units determined, FIG. 2B.

E. coli [3] = test: E. coli colony recovery after 7 freeze/thaw cycles; assay type: cell-based, Escherichia coli; design: Mean colonies recovered, E. coli, Total: dose or concentration left out as unconfirmed
Description: E. coli was added to different cryoprotective formulations and then exposed to 7 freeze/thaw cycles from liquid nitrogen (−196° C.) to room temperature (20° C.) and the number of colony forming units determined by growth on agar plates for 16 hours was recorded (see FIG. 2A). This was chosen to mimic laboratory conditions where stocks are often frozen and thawed during use.
In some down-stream applications, […].
as §1

β-galactosidase (β-Gal) = test: β-Gal activity recovery after frozen storage (ONPG assay); assay type: biochemical, bacterial; conditions: frozen at −20° C. for 3 days, thawed at 20° C.; PEG, PVP, Trehalose, HES 100 mg·mL^−1, PVA 1 mg·mL^−1
Description: Samples were made in triplicate at the appropriate concentrations and frozen in 1.5 mL tubes by directly placing in a freezer either at −20° C. or −80° C. The samples were then held at this temperature for the indicated time period and then thawed at 20° C.
Absorbance was measured at 420 nm. All other methods are in the supporting information.
Absorbance was measured at 420 nm.
Activity was tested after thawing at 20° C. (FIG. 6B).

β-Gal = β-Gal (Escherichia coli, UniProt P00722); conditions: 1 hour incubation without freeze/thaw
Description: β-Gal activity was determined by a colorimetric assay involving the use of ONPG. Briefly aliquots of 30 μL of 4 mg·mL-1 ONPG were added to wells of a 96 well plate containing 50 μL of 20 μg·mL^−1 B-Gal solution. This was then incubated at room temperature for 5 minutes and quenched by addition of 50 μL of 1M Na2CO3 solution. Absorbance was measured at 420 nm.
Since under standard laboratory conditions, proteins are normally stored at −80° C. through long periods, we decided to test the levels of protein activity after long term ultra-low temperature conditions.

[4] = concentrations as in table footnote, ± SD
[5] = normalised to the highest recovery

β-Gal, sequence (P00722 2-1024): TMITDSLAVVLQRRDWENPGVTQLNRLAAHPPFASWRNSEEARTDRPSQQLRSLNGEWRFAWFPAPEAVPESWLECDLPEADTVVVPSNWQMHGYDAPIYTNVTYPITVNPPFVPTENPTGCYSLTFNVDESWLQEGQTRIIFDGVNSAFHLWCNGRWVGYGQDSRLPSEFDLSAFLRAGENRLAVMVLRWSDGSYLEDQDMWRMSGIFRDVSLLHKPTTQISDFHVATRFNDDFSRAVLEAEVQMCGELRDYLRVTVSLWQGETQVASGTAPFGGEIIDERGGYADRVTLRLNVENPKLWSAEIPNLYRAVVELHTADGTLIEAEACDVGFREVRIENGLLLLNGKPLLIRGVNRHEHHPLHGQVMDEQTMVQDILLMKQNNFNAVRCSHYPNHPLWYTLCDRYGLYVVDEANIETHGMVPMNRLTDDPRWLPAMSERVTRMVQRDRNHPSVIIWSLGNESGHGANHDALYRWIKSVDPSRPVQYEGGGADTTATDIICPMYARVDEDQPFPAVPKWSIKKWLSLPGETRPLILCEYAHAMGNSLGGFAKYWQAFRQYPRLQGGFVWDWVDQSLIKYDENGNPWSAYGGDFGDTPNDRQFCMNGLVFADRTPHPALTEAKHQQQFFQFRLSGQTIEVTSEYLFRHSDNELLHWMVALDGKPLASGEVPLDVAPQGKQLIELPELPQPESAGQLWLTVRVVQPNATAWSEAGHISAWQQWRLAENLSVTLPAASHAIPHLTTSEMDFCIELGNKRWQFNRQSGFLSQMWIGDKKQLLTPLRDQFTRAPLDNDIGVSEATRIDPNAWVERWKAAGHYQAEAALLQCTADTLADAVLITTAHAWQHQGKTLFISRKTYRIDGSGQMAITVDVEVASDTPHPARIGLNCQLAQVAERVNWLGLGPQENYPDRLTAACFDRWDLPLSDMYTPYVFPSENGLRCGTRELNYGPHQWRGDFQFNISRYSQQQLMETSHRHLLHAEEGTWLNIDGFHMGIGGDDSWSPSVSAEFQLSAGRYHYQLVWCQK

| SMILES | Mean colonies recovered, M. smegmatis, Total (M. smegmatis; [4]) | Mean colonies recovered, M. smegmatis, Normalised (M. smegmatis; [5]) [%] | Mean colonies recovered, B. subtilis, Total (B. subtilis; [4]) | Mean colonies recovered, B. subtilis, Normalised (B. subtilis; [5]) [%] | post-thaw growth rate (OD600) (E. coli [1]) | recovered colonies after overnight incubation with cryoprotectant (toxicity) (E. coli [2]) | recovered colonies (colony forming units) (E. coli [3]; 7 freeze (−196° C.)/thaw (20° C.) cycles, growth on agar plates for 16 hours, PEG/PVA 100 + 1 mg·mL^−1) | Mean colonies recovered, E. coli, Normalised (E. coli [3]; 7 freeze/thaw cycles, normalised to the highest recovery) [%] | Mean colonies recovered, E. coli, Total (E. coli [3]; 7 freeze/thaw cycles, ± SD) | protection of β-Gal activity (β-galactosidase (β-Gal)) | β-Gal function after incubation with cryoprotectant (β-Gal) |
| --- | --- | --- | --- | --- | --- | --- | --- | --- | --- | --- | --- |
| OCC(O)CO [25% Glycerol, glycerol] | 30 ± 6.0 | 88 | 93 ± 18.9 | 35 | essentially identical growth rates | significant reduction in recovered colonies | 15 | 22 | 15 ± 2.8 |  |  |
| OC[C@H]1O[C@H](O[C@H]2O[C@H](CO)[C@@H](O)[C@H](O)[C@H]2O)[C@H](O)[C@@H](O)[C@@H]1O [trehalose] |  |  |  |  |  |  |  |  |  | protected β-Gal activity | some negative effects on protein function |
